Measurements published in US20250066388A1, “1,3,4,7-TETRAHYDRO-2H-PYRROLO[3',2':5,6]PYRIDO[2,3-B][1,4]OXAZEPINE BCL-2 INHIBITORS” (AbbVie Inc., priority 2022, published 2025).

Tests used:
[1] = system: RS4;11 cells; assay: Cell viability assay (CellTiter-Glo) in RS4;11 cells; assay type: cell-based; settings: 24 hours, 10% Human Serum
Experimental: The acute lymphoblastic leukemia (ALL) human cell line RS4;11 (ATCC, Manassas VA) was used as the primary human cell line to assess the cellular activity of compound of the present Examples in vitro and their efficacy in vivo. […] The acute lymphoblastic leukemia cell line Molt-4, which is derived from immature T-lymphoid cells (T-ALL), was used as a counter screen assay.
3000 Cells (0.1×10^6/mL) were seeded in each well of 384-well plate and were treated for 24 hours in a humidified chamber with 5% CO2. Cell viability was determined by CellTiter-Glo as described by the manufacturer's instructions (Promega Corporation, Madison, WI, USA).

[2] = system: Molt-4 cells; assay: Cell viability counter screen (CellTiter-Glo) in Molt-4 cells; assay type: cell-based; settings: 24 hours, 10% Human Serum
In short: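 3000 cells/well (0.1×10^6/mL) were treated with compound for 24 hours in 5% CO2. Viability read by CellTiter-Glo luminescence; Molt-4 (T-ALL) served as the counter screen to RS4;11 (ALL).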

[3] = target: Bcl-2 protein (Homo sapiens (Human), UniProt P10415); assay: TR-FRET binding assay, Bcl-2; settings: F-Bak peptide probe, GST-Bcl-2
[4] = target: Bcl-xL protein (Homo sapiens (Human), UniProt Q07817); assay: TR-FRET binding assay, Bcl-xL; settings: F-Bak peptide probe
Bcl-xL protein, sequence (Q07817 other isoform, or with tags, fused parts or gaps): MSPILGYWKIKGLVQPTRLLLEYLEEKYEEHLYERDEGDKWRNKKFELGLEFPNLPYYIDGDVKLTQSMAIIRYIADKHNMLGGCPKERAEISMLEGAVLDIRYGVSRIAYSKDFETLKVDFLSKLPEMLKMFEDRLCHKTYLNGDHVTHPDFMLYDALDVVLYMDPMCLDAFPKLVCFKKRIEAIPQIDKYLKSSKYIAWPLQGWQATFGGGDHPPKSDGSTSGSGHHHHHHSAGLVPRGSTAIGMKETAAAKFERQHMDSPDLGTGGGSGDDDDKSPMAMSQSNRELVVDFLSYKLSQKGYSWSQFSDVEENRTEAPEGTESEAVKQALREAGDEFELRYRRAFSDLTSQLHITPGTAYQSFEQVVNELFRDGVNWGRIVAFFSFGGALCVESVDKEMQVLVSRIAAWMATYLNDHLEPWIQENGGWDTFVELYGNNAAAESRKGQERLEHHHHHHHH

Bcl-2 protein, sequence (P10415 other isoform, or with tags, fused parts or gaps): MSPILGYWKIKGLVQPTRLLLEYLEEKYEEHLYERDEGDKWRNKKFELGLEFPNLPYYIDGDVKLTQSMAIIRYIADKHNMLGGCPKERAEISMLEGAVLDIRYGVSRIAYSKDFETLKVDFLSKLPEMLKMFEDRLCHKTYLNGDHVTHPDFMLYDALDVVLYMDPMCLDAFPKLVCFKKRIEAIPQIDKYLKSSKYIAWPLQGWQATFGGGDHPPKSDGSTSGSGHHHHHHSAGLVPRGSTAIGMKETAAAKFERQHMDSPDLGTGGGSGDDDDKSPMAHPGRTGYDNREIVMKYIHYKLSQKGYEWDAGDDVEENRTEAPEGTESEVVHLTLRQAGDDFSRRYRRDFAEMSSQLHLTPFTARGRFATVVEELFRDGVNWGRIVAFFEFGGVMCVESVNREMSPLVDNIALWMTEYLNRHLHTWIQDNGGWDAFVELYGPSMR

SMILES	EC50 [1]	EC50 [2]	Ki [3]	Ki [4]
CC1(C)CC(c2ccc(Cl)cc2)=C2CN3CCN(c4ccc(C(=O)NS(=O)(=O)c5ccc(NC[C@H]6CC[C@](O)(CF)CC6)c([N+](=O)[O-])c5)c(N5CCCOc6nc7[nH]ccc7cc65)c4)C[C@H]3COCCCO[C@@H]2C1 [Example 14, 4-((4aS,10aR)-14-(4-chlorophenyl)-12,12-dimethyl-1,2,4a,5,8,9,10a,11,13,15-decahydro-7H,12H-benzo[f]pyrazino[2,1-c][1,8]dioxa[4]azacycloundecin-3(4H)-yl)-2-(3,4-dihydro-2H-pyrrolo[3′,2′:5,6]pyrido[2,3-b][1,4]oxazepin-1(7H)-yl)-N-((4-((((1s,4s)-4-(fluoromethyl)-4-hydroxycyclohexyl)methyl)amino)-3-nitrophenyl)sulfonyl)benzamide]	1.64 nM	1740 nM	0.24 nM	20.8 nM
CC1(C)CC(c2ccc(Cl)cc2)=C2CN3CCN(c4ccc(C(=O)NS(=O)(=O)c5ccc(NC[C@H]6C[C@](O)(C7CCC7)C6)c([N+](=O)[O-])c5)c(N5CCCOc6nc7[nH]ccc7cc65)c4)C[C@H]3COCCCO[C@@H]2C1 [Example 15, 4-((4aS,10aR)-14-(4-chlorophenyl)-12,12-dimethyl-1,2,4a,5,8,9,10a,11,13,15-decahydro-7H,12H-benzo[f]pyrazino[2,1-c][1,8]dioxa[4]azacycloundecin-3(4H)-yl)-2-(3,4-dihydro-2H-pyrrolo[3′,2′:5,6]pyrido[2,3-b][1,4]oxazepin-1(7H)-yl)-N-((4-((((1s,3s)-1-hydroxy-[1,1′-bi(cyclobutan)]-3-yl)methyl)amino)-3-nitrophenyl)sulfonyl)benzamide]	5.64 nM	2550 nM	0.552 nM	13.9 nM
CC1(C)CC(c2ccc(Cl)cc2)=C2CN3CCN(c4ccc(C(=O)NS(=O)(=O)c5ccc(NCC6(O)COC6)c([N+](=O)[O-])c5)c(N5CCCOc6nc7[nH]ccc7cc65)c4)C[C@H]3COCCCO[C@@H]2C1 [Example 17, 4-((4aS,10aR)-14-(4-chlorophenyl)-12,12-dimethyl-1,2,4a,5,8,9,10a,11,13,15-decahydro-7H,12H-benzo[f]pyrazino[2,1-c][1,8]dioxa[4]azacycloundecin-3(4H)-yl)-2-(3,4-dihydro-2H-pyrrolo[3′,2′:5,6]pyrido[2,3-b][1,4]oxazepin-1(7H)-yl)-N-((4-(((3-hydroxyoxetan-3-yl)methyl)amino)-3-nitrophenyl)sulfonyl)benzamide]	2.82 nM	723 nM	0.761 nM	6.31 nM
CC1(C)CC(c2ccc(Cl)cc2)=C2CN3CCN(c4ccc(C(=O)NS(=O)(=O)c5ccc(NCC6(O)CCOCC6)c([N+](=O)[O-])c5)c(N5CCCOc6nc7[nH]ccc7cc65)c4)C[C@H]3COCCCO[C@@H]2C1 [Example 18, 4-((4aS,10aR)-14-(4-chlorophenyl)-12,12-dimethyl-1,2,4a,5,8,9,10a,11,13,15-decahydro-7H,12H-benzo[f]pyrazino[2,1-c][1,8]dioxa[4]azacycloundecin-3(4H)-yl)-2-(3,4-dihydro-2H-pyrrolo[3′,2′:5,6]pyrido[2,3-b][1,4]oxazepin-1(7H)-yl)-N-((4-(((4-hydroxytetrahydro-2H-pyran-4-yl)methyl)amino)-3-nitrophenyl)sulfonyl)benzamide]	1.43 nM	426 nM	0.223 nM	8.31 nM
CC1(C)CC(c2ccc(Cl)cc2)=C2CN3CCN(c4ccc(C(=O)NS(=O)(=O)c5ccc(OCC6(F)CCN(C7COC7)CC6)c([N+](=O)[O-])c5)c(N5CCCOc6nc7[nH]ccc7cc65)c4)C[C@H]3COCCCO[C@@H]2C1 [Example 19, 4-((4aS,10aR)-14-(4-chlorophenyl)-12,12-dimethyl-1,2,4a,5,8,9,10a,11,13,15-decahydro-7H,12H-benzo[f]pyrazino[2,1-c][1,8]dioxa[4]azacycloundecin-3(4H)-yl)-2-(3,4-dihydro-2H-pyrrolo[3′,2′:5,6]pyrido[2,3-b][1,4]oxazepin-1(7H)-yl)-N-((4-((4-fluoro-1-(oxetan-3-yl)piperidin-4-yl)methoxy)-3-nitrophenyl)sulfonyl)benzamide]	0.881 nM	132 nM	0.475 nM	2.23 nM
C[C@@H]1CO[C@@H](COc2ccc(S(=O)(=O)NC(=O)c3ccc(N4CCN5CC6=C(c7ccc(Cl)cc7)CC(C)(C)C[C@H]6OCCCOC[C@@H]5C4)cc3N3CCCOc4nc5[nH]ccc5cc43)cc2[N+](=O)[O-])CO1 [Example 20, 4-((4aS,10aR)-14-(4-chlorophenyl)-12,12-dimethyl-1,2,4a,5,8,9,10a,11,13,15-decahydro-7H,12H-benzo[f]pyrazino[2,1-c][1,8]dioxa[4]azacycloundecin-3(4H)-yl)-2-(3,4-dihydro-2H-pyrrolo[3′,2′:5,6]pyrido[2,3-b][1,4]oxazepin-1(7H)-yl)-N-((4-(((2R,5R)-5-methyl-1,4-dioxan-2-yl)methoxy)-3-nitrophenyl)sulfonyl)benzamide]	5.21 nM	1610 nM	0.977 nM	17.3 nM
CO[C@H]1C[C@@H](CNc2ccc(S(=O)(=O)NC(=O)c3ccc(N4CCN5CC6=C(c7ccc(Cl)cc7)CC(C)(C)C[C@H]6OCCCOC[C@@H]5C4)cc3N3CCCOc4nc5[nH]ccc5cc43)cc2[N+](=O)[O-])C1 [Example 24, 4-((4aS,10aR)-14-(4-chlorophenyl)-12,12-dimethyl-1,2,4a,5,8,9,10a,11,13,15-decahydro-7H,12H-benzo[f]pyrazino[2,1-c][1,8]dioxa[4]azacycloundecin-3(4H)-yl)-2-(3,4-dihydro-2H-pyrrolo[3′,2′:5,6]pyrido[2,3-b][1,4]oxazepin-1(7H)-yl)-N-((4-((((1s,3s)-3-methoxycyclobutyl)methyl)amino)-3-nitrophenyl)sulfonyl)benzamide]	4.9 nM	> 10000 nM	0.248 nM	10.3 nM
CC1(C)CC(c2ccc(Cl)cc2)=C2CN3CCN(c4ccc(C(=O)NS(=O)(=O)c5ccc(NC[C@H]6CC[C@H](N7CCOCC7)CC6)c([N+](=O)[O-])c5)c(N5CCCOc6nc7[nH]ccc7cc65)c4)C[C@H]3COCCCO[C@@H]2C1 [Example 28, 4-((4aS,10aR)-14-(4-chlorophenyl)-12,12-dimethyl-1,2,4a,5,8,9,10a,11,13,15-decahydro-7H,12H-benzo[f]pyrazino[2,1-c][1,8]dioxa[4]azacycloundecin-3(4H)-yl)-2-(3,4-dihydro-2H-pyrrolo[3′,2′:5,6]pyrido[2,3-b][1,4]oxazepin-1(7H)-yl)-N-((4-((((1r,4r)-4-morpholinocyclohexyl)methyl)amino)-3-nitrophenyl)sulfonyl)benzamide]	0.862 nM	274 nM	0.833 nM	4.71 nM
CO[C@H]1C[C@H](Nc2ccc(S(=O)(=O)NC(=O)c3ccc(N4CCN5CC6=C(c7ccc(Cl)cc7)CC(C)(C)C[C@H]6OCCCOC[C@@H]5C4)cc3N3CCCOc4nc5[nH]ccc5cc43)cc2[N+](=O)[O-])C1 [Example 30, 4-((4aS,10aR)-14-(4-chlorophenyl)-12,12-dimethyl-1,2,4a,5,8,9,10a,11,13,15-decahydro-7H,12H-benzo[f]pyrazino[2,1-c][1,8]dioxa[4]azacycloundecin-3(4H)-yl)-2-(3,4-dihydro-2H-pyrrolo[3′,2′:5,6]pyrido[2,3-b][1,4]oxazepin-1(7H)-yl)-N-((4-(((1r,3r)-3-methoxycyclobutyl)amino)-3-nitrophenyl)sulfonyl)benzamide]	4.1 nM	> 10000 nM	2.58 nM	39 nM
CN1CCC(Nc2ccc(S(=O)(=O)NC(=O)c3ccc(N4CCN5CC6=C(c7ccc(Cl)cc7)CC(C)(C)C[C@H]6OCCCOC[C@@H]5C4)cc3N3CCCOc4nc5[nH]ccc5cc43)cc2[N+](=O)[O-])CC1 [Example 31, 4-((4aS,10aR)-14-(4-chlorophenyl)-12,12-dimethyl-1,2,4a,5,8,9,10a,11,13,15-decahydro-7H,12H-benzo[f]pyrazino[2,1-c][1,8]dioxa[4]azacycloundecin-3(4H)-yl)-2-(3,4-dihydro-2H-pyrrolo[3′,2′:5,6]pyrido[2,3-b][1,4]oxazepin-1(7H)-yl)-N-((4-((1-methylpiperidin-4-yl)amino)-3-nitrophenyl)sulfonyl)benzamide]	3.24 nM	1220 nM	0.51 nM	5.75 nM
CO[C@H]1CC[C@H](COc2ccc(S(=O)(=O)NC(=O)c3ccc(N4CCN5CC6=C(c7ccc(Cl)cc7)CC(C)(C)C[C@H]6OCCCOC[C@@H]5C4)cc3N3CCCOc4nc5[nH]ccc5cc43)cc2[N+](=O)[O-])OC1 [Example 33, 4-((4aS,10aR)-14-(4-chlorophenyl)-12,12-dimethyl-1,2,4a,5,8,9,10a,11,13,15-decahydro-7H,12H-benzo[f]pyrazino[2,1-c][1,8]dioxa[4]azacycloundecin-3(4H)-yl)-2-(3,4-dihydro-2H-pyrrolo[3′,2′:5,6]pyrido[2,3-b][1,4]oxazepin-1(7H)-yl)-N-((4-(((2R,5S)-5-methoxytetrahydro-2H-pyran-2-yl)methoxy)-3-nitrophenyl)sulfonyl)benzamide]	3.49 nM	6080 nM	0.272 nM	28.6 nM
